In patent US6756377B2, “Compounds and their use” (Biovitrum AB, priority 2000, dated 2004):
Like-named read-outs stand apart in the source and are kept apart here.

How the values were obtained:
[1] = target: T1, 5-HT2c receptor (Mus musculus, UniProt P34968); conditions: mice that express the normal 5-HT2c receptor; cited from earlier work
T1 construct: mice that express the normal 5-HT2c receptor; host or cells: mice (in vivo)
T1 sequence (P34968 33-459): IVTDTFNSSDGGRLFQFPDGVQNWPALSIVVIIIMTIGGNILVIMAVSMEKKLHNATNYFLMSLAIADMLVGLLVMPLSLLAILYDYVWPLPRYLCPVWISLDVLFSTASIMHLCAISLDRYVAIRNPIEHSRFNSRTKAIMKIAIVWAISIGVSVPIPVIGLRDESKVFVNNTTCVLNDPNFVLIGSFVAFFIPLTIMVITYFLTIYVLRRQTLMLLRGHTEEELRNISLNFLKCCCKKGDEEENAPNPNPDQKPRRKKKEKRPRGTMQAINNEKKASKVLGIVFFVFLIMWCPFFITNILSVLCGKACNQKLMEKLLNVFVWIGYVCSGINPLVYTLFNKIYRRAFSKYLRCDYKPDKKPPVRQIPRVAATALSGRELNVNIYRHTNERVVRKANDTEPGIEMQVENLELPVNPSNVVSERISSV

[2] = test system: 5-HT2c receptor; conditions: mice expressing the mutated inactive form of the 5-HT2c receptor; cited from earlier work
[3] = cited from earlier work
[4] = target: T2, human 5-HT2c receptor protein (Homo sapiens, UniProt P28335); assay: 5-HT2c receptor affinity assay (displacement of 3H-labelled 5-HT, Scintillation Proximity Assay); conditions: membranes of transfected HEK293 cells; 3H-5-HT displacement; non-specific binding 5 μM mianserin
T2 construct: expressed in transfected cells; host or cells: HEK293 (membranes)
T2 sequence (P28335 33-458): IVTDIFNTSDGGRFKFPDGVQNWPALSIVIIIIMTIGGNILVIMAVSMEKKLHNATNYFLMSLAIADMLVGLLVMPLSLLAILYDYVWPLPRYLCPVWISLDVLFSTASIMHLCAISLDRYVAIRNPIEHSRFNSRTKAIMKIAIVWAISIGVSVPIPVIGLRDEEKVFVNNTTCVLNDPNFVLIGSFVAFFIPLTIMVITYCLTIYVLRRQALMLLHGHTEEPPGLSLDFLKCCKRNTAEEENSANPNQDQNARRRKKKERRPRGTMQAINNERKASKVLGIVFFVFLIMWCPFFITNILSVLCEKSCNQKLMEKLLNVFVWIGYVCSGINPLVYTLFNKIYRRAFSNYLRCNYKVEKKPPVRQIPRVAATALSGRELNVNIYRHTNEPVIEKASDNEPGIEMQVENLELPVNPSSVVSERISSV
Procedure: The 5-HT2c receptor affinity of compounds in the Examples was determined in competition experiments, where the ability of each compound in serial dilution to displace ^3H-labelled 5-HT, bound to membranes prepared from a transfected HEK293 cell line stably expressing the human 5-HT2c receptor protein, was monitored by Scintillation Proximity Assay technology. Non-specific binding was defined using 5 μM mianserin. Typically, the 5HT2c receptor affinity values (Ki, nM) were in the range of 1 nM to 1500 nM, preferably 1 nM to 100 nM.

SMILES: Clc1cccc(N2CCNCC2)c1 [mCPP, m-chlorophenylpiperazine]
- food intake [1]: reduces food intake
- food intake [2]: lacks activity
- body weight ([3]; obese subjects, after 2 weeks of treatment): slight but sustained reduction in body weight

SMILES: c1cc(CN2CCOCC2)cc(OCCOc2nccnc2N2CCNCC2)c1 [Example 1, 2-(1-Piperazinyl)-3-{2-[3-(4-morpholinylmethyl)phenoxy]ethoxy}pyrazine]
- Ki [4]: 18 nM

SMILES: CCN[C@@H](C)Cc1cccc(C(F)(F)F)c1 [dexfenflurarnine]
- body weight ([3]; controlled clinical studies): weight reduction

SMILES: CNCCC(Oc1ccc(C(F)(F)F)cc1)c1ccccc1 (stereo not shown) [fluoxetine]
- body weight ([3]; controlled clinical studies): weight reduction

SMILES: CC(C)NCc1cccc(OCCOc2nccnc2N2CCNCC2)c1 [Example 5, 2-(1-Piperazinyl)-3-{2-[3-{(isopropylamino)methyl}phenoxy]ethoxy}pyrazine]
- Ki [4]: 3 nM
